From patent US7745639B2, “Mitotic kinesin inhibitors” (Merck & Co., Inc., priority 2002, dated 2010) come the findings set out here.

The experiment deals with T1, human KSP motor domain (KSP(367H)) (Homo sapiens, UniProt P52732).
T1 construct: were used to amplify the motor domain and the neck linker region; made in house; host or cells: E. coli BL21 (DE3), vector pRSETa
T1 sequence (P52732 18-359 limits assumed): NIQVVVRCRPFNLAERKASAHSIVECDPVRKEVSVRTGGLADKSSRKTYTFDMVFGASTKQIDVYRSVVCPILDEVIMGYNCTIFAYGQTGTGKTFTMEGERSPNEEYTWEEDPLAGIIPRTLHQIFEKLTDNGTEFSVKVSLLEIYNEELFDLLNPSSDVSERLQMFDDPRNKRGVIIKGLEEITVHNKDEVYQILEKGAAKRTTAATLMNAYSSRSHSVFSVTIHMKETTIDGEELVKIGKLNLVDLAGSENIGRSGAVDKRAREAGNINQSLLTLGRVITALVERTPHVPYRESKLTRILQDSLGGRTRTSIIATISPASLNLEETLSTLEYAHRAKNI
Description: Kinesin ATPase in vitro assay. The format is biochemical. The source says:
I. Kinesin ATPase In Vitro Assay
Cloning and Expression of Human Poly-Histidine Tagged KSP Motor Domain (KSP(367H))
Plasmids for the expression of the human KSP motor domain construct were cloned by PCR using a pBluescript full length human KSP construct (Blangy et al., Cell, vol.83, pp 1159-1169, 1995) as a template. The N-terminal primer 5′-[…] (SEQ.ID.NO.: 1) and the C-terminal primer 5′-[…] (SEQ.ID.NO.: 2) were used to amplify the motor domain and the neck linker region. The PCR products were digested with AseI and XhoI, ligated into the NdeI/XhoI digestion product of pRSETa (Invitrogen) and transformed into E. coli BL21 (DE3).
Cells were grown at 37° C. to an OD600 of 0.5. After cooling the culture to room temperature expression of KSP was induced with 100 μM IPTG and incubation was continued overnight. Cells were pelleted by centrifugation and washed once with ice-cold PBS. Pellets were flash-frozen and stored −80° C.
Cell pellets were thawed on ice and resuspended in lysis buffer (50 mM K-HEPES, pH 8.0, 250 mM KCl, 0.1% Tween, 10 mM imidazole, 0.5 mM Mg-ATP, 1 mM PMSF, 2 mM benzimidine, 1× complete protease inhibitor cocktail (Roche)). Cell suspensions were incubated with 1 mg/ml lysozyme and 5 mM β-mercaptoethanol on ice for 10 minutes, followed by sonication (3×30 sec). All subsequent procedures were performed at 4° C. Lysates were centrifuged at 40,000×g for 40 minutes. Supernatants were diluted and loaded onto an SP Sepharose column (Pharmacia, 5 ml cartridge) in buffer A (50 mM K-HEPES, pH 6.8, 1 mM MgCl2, 1 mM EGTA, […], 1 mM DTT) and eluted with a 0 to 750 mM KCl gradient in buffer A. Fractions containing KSP were pooled and incubated with Ni-NTA resin (Qiagen) for one hour. The resin was washed three times with buffer B (Lysis buffer minus PMSF and protease inhibitor cocktail), followed by three 15-minute incubations and washes with buffer B. Finally, the resin was incubated and washed for 15 minutes three times with buffer C (same as buffer B except for pH 6.0) and poured into a column. KSP was eluted with elution buffer (identical to buffer B except for 150 mM KCl and 250 mM imidazole). KSP-containing fractions were pooled, made 10% in sucrose, and stored at −80° C.
Microtubules are prepared from tubulin isolated from bovine brain. Purified tubulin (>97% MAP-free) at 1 mg/ml is polymerized at 37° C. in the presence of 10 μM paclitaxel, 1 mM DTT, 1 mM GTP in BRB80 buffer (80 mM K-PIPES, 1 mM EGTA, 1 mM MgCl2 at pH 6.8). The resulting microtubules are separated from non-polymerized tubulin by ultracentrifugation and removal of the supernatant. The pellet, containing the microtubules, is gently resuspended in 10 μM paclitaxel, 1 mM DTT, 50 μg/ml ampicillin, and 5 μg/ml chloramphenicol in BRB80.
The kinesin motor domain is incubated with microtubules, 1 mM ATP (1:1 MgCl2: Na-ATP), and compound at 23° C. in buffer containing 80 mM K-HEPES (pH 7.0), 1 mM EGTA, 1 mM DTT, 1 mM MgCl2, and 50 mM KCl. The reaction is terminated by a 2-10 fold dilution with a final buffer composition of 80 mM HEPES and 50 mM EDTA. Free phosphate from the ATP hydrolysis reaction is measured via a quinaldine red/ammonium molybdate assay by adding 150 μl of quench C buffer containing a 2:1 ratio of quench A:quench B. Quench A contains 0.1 mg/ml quinaldine red and 0.14% polyvinyl alcohol; quench B contains 12.3 mM ammonium molybdate tetrahydrate in 1.15 M sulfuric acid. The reaction is incubated for 10 minutes at 23° C., and the absorbance of the phospho-molybdate complex is measured at 540 nm.

[1] abbreviates: kinesin motor domain incubated with microtubules, 1 mM ATP and compound at 23° C., free phosphate by quinaldine red/ammonium molybdate, 540 nm, read-out: IC50.

Read-outs that look alike come from different tables or passages of the source.

For the molecule `CCNC(=O)N1N=C(c2cc(F)ccc2F)CC1(CCCN(C)C)c1ccccc1` (stereo not drawn) [Compound 9-2, 3-(2,5-difluorophenyl)-5-[3-(dimethylamino)propyl]-N-ethyl-5-phenyl-4,5-dihydro-1H-pyrazole-1-carboxamide], under setting [1], the IC50 is no more than 50 µM.

Consider `O=C(N1CCNCC1)N1N=C(c2cc(F)ccc2F)CC1c1ccccc1` (stereo not drawn) [Compound 5-6, 1-{[3-(2,5-difluorophenyl)-5-phenyl-4,5-dihydro-1H-pyrazol-1-yl]carbonyl}piperazine], for which the half-inhibitory concentration (IC50) under setting [1] is no more than 50 µM.

With `CC(=O)N1N=C(c2cc(F)ccc2F)CC1c1cccc(O)c1` (racemic) [Compound 4-5, 3-[1-acetyl-3-(2,5-difluorophenyl)-4,5-dihydro-1H-pyrazol-5-yl]phenyl], under setting [1], the IC50 is no more than 50 µM.

For `NCCCC1(c2ccccc2)CC(c2cc(F)ccc2F)=NN1C(=O)N1CCOCC1` (stereo not drawn) [Compound 7-7, 3-[3-(2,5-difluorophenyl)-1-(morpholin-4-ylcarbonyl)-5-phenyl-4,5-dihydro-1H-pyrazol-5-yl]propan-1-amine], under setting [1], the IC50 was no more than 50 µM.

As for `CC(C)C(=O)N1N=C(c2ccccc2Cl)CC1c1cccc(O)c1` (stereo not drawn) [Compound 2-1, 3-[3-(2-chlorophenyl)-1-isobutyryl-4,5-dihydro-1H-pyrazol-5-yl]phenyl], under setting [1], the IC50 is no more than 50 µM.

Regarding `CN(C)C(=O)N1N=C(c2cc(F)ccc2F)CC1(CCC(N)c1ccccc1)c1ccccc1` (stereo not drawn) [Compound 11-2, 5-(3-amino-3-phenylpropyl)-3-(2,5-difluorophenyl)-N,N-dimethyl-5-phenyl-4,5 dihydro-1H-pyrazole-1-carboxamide], the IC50 under setting [1] was no more than 50 µM.

In the case of `CC(=O)N1N=C(c2ccccc2Cl)CC1c1cccc(O)c1` (stereo not drawn) [Compound 1-7, 3-[1-acetyl-3-(2-chlorophenyl)-4,5-dihydro-1H-pyrazol-5-yl]phenyl], the IC50 was no more than 50 µM.

On to `CCNC(=O)N1N=C(c2cc(F)ccc2F)CC1(CCCNC(=O)c1ncc[nH]1)c1ccccc1` (stereo not drawn) [Compound 10-2, 3-(2,5-difluorophenyl)-N-ethyl-5-{3-[(1H-imidazol-2-ylcarbonyl)amino]propyl}-5-phenyl-4,5-dihydro-1H-pyrazole-1-carboxamide], for which, under setting [1], the IC50 was no more than 50 µM.

Regarding `CS(=O)(=O)N1N=C(c2cc(F)ccc2F)CC1c1ccccc1` (stereo not drawn) [Compound 8-1, 3-(2,5-difluorophenyl)-1-(methylsulfonyl)-5-phenyl-4,5-dihydro-1H-pyrazole], under setting [1], the IC50 is no more than 50 µM.

With `CC(=O)N1N=C(c2ccccc2Cl)CC1(C)c1cccc(O)c1` (stereo not drawn) [Compound 3-3, 3-[1-acetyl-3-(2-chlorophenyl)-5-methyl-4,5-dihydro-1H-pyrazol-5-yl]phenyl], the half-maximal inhibitory concentration (IC50) under setting [1] was no more than 50 µM.

In the case of `CN1N=C(c2cc(F)ccc2F)CC1(C)c1ccccc1` (stereo not drawn) [Compound 6-2, 3-(2,5-difluorophenyl)-1,5-dimethyl-5-phenyl-4,5-dihydro-1H-pyrazole], the IC50 under setting [1] is no more than 50 µM.

Take `CC(=O)N1N=C(c2cc(F)ccc2F)C(C)C1c1ccccc1` (single isomer, unassigned) [Compound 12-2, 1-acetyl-3-(2,5-difluorophenyl)-4-methyl-5-phenyl-4,5-dihydro-1H-pyrazole]: the IC50 under setting [1] was no more than 50 µM.

The IC50 is the midpoint of a concentration-inhibition curve.
